# Source: patent publication US6593306B1, “Methods for modulation and inhibition of telomerase” (Board of Regents, The University of Texas Systems, priority 1995, dated 2003)
# pIC50: −log10 of the molar value. “And” between values parts separate entries of the source, which are not always exact repeats. Equal values may be shown once.
# Key:
# HeLa cell telomerase = target: T1, HeLa cell telomerase (Homo sapiens, UniProt O14746); experiment: HeLa cell telomerase assay; assay type: biochemical; conditions: for pIC50: HeLa cell telomerase
# T1 construct: endogenous in cells; host or cells: HeLa cells (human cervical tumor)
# MCF-7 = experiment: Growth inhibition (MTT), MCF-7; assay type: cell-based; conditions: Homo sapiens, MCF7, 144 h, 6 days
# Experimental: (§1) Exponentially growing cells (1-2×10^3 cells, unless specified otherwise) in 0.1 ml medium were seeded on day 0 in a 96-well microtiter plate. On day 1, 0.1 ml aliquots of medium containing graded concentrations of test analogs were added in duplicate to the cell plates. After incubation at 37° C. in a humidified incubator for 6 days, the plates were centrifuged briefly and 100 μl of the growth medium was removed. Cell cultures were incubated with 50 μl of 3-(4,5-dimethylthiazol-2-yl)-2,5-diphenyl-tetrazolium bromide, (MTT) at a concentration of 1 mg/ml in Dulbecco's phosphate buffered saline (PBS)) for 4 hr at 37° C. The resulting purple formazan precipitate was solubilized with 200 μl of 0.04 N HCl in isopropyl alcohol. Absorbance was monitored in a BioRad Model 3550 Microplate Reader at a test wavelength of 570 nm and a reference wavelength of 630 nm. The absorbance was transferred to a PC 486 computer. The IC50 values were determined by a computer program (EZ-ED50) that fits all the data to the following four-parameter logistic equation: [formula]
# (§2) where Amax is the absorbance of control cells, Amin is the absorbance of cells in the presence of highest agent concentration, Y is the observed absorbance, X is the agent concentration, IC50 is the concentration of agent that inhibits the cell growth by 50% of control cells (based on the absorbance) and n is the slope of the curve.
# (§3) This is due to the extracellular dephosphorylation of the mono-, di-, or triphosphates by […] or 5′-nucleotidase back to the nucleoside. With this in mind, the inventors used only nucleosides rather than nucleoside triphosphates in these studies. Cultured tumor cells were incubated with selected nucleosides at graded concentrations for 6 days and the growth inhibition was determined by the standard MTT assay.
# BT-20 = experiment: Growth inhibition (MTT), BT-20; assay type: cell-based; conditions: Homo sapiens, BT-20, 144 h, 6 days
# Experimental: as §1, §2, §3
# SKBR3 = experiment: Growth inhibition (MTT), SKBR3; assay type: cell-based; conditions: Homo sapiens, SK-BR-3, 144 h, 6 days
# Experimental: as §1, §2, §3
# PC3 = experiment: Growth inhibition (MTT), PC3; assay type: cell-based; conditions: Homo sapiens, PC-3, 144 h, 6 days
# Experimental: as §1, §2, §3
# MDA-231 = experiment: Growth inhibition (MTT), MDA-231; assay type: cell-based; conditions: Homo sapiens, MDA-MB-231, 144 h, 6 days
# Experimental: as §1, §2, §3
# DU145 = experiment: Growth inhibition (MTT), DU145; assay type: cell-based; conditions: Homo sapiens, DU-145, 144 h, 6 days
# Experimental: as §1, §2, §3
# Raji = experiment: Growth inhibition (MTT), Raji; assay type: cell-based; conditions: Homo sapiens, 144 h, 6 days
# Experimental: as §1, §2, §3
# human cancer telomerase = target: T2, human cancer telomerase (Homo sapiens, UniProt O14746); experiment: Nucleoside triphosphate as telomerase substrate, dGTP replaced in modified reaction; assay type: biochemical
# T2 construct: endogenous in cells; host or cells: human cancer cells
# human telomerase = target: T3, human telomerase (Homo sapiens, UniProt O14746); experiment: Cell-free telomerase inhibition, conventional or modified assay not stated; assay type: biochemical
# T3 construct: telomerase in S100 extracts of transformed human fetal kidney tumor 293 cells (a processive telomerase); endogenous in cells; host or cells: human cells, (S100 extract)
# Experimental: Selected nucleoside triphosphates were tested in one or both of the “conventional” or “modified” telomerase assays described in Methods using the human processive and the CHO non-processive telomerases. Initially, three chain-terminators were selected: 2′,3′-dideoxythymidine triphosphate (ddTTP), 3′-fluoro-2′,3′-dideoxythymidine triphosphate (F-ddTTP), and 3′-azido-2′-, 3′-dideoxythymidine triphosphate (AZ-ddTTP) as prototype agents to investigate whether they could inhibit telomerase activity. The three compounds are dTTP analogs without a 3′-OH group for subsequent chain elongation. They may either incorporate into the telomere sequence and terminate further chain elongation or compete directly with dTTP for the substrate binding site in the telomerase reaction. In either case, telomerase activity is inhibited.
# [1] = target: T4, human 293 cell telomerase (Homo sapiens, UniProt O14746); experiment: Conventional telomerase assay (32P-dGTP as radiolabel substrate); assay type: biochemical
# T4 construct: with 20 μl of S100 enzyme extract; endogenous in cells; host or cells: 293 cells (transformed human embryonic kidney), S100 extract
# Experimental: (§4) Telomerase was prepared from transformed human embryonic kidney 293 cell line. Human embryonic kidney 293 cells were grown in Joklik's modified MEM niedium (Sigma, St Louis, Mo.) supplemented with 5% fetal bovine serum at 37° C. in a humidified atmosphere with 5% CO2. The cells were subcultured at 1-2×10^5 cells/ml twice a week. When the cells grew to approximately 1×10^6 cells/ml, the cells (˜2×10^9 cells) were centrifuged and transferred into polypropylene centrifuge (50 ml) tubes and kept on ice. The cells were then centrifuged in a (Beckman GS-6R) centrifuge at 1200 RPM for 10 minutes at 4° C., and resuspended in PBS. The washed cells were resuspended in 15 ml Hypobuffer Mix (10 mM HEPES, pH 8.0, 3 mM KCl, 1 mM MgCl2, 1 mM dithiothreitol, 1 μM leupeptin, 0.1 mM PMSF, 10 μM pepstatin, 0.83 μg/ml chymostatin, 0.83 μg/ml antipain, and 43.2 units/ml RNase Guard) and centrifuged. The cell pellets were resuspended in 0.75×volumes Hypobuffer [Hypobuffer Mix+40 units/ml RNase Guard (Pharmacia, N.J.) to allow the cells to swell. The cell suspensions were homogenized to allow the telomerase to “leak” into the cytosolic fraction. The lysate was then poured into new, autoclaved, 3 ml polyallomer ultracentrifuge tubes and centrifuged at 100,000×g for 1 hour at 4° C. A top lipid layer was carefully removed and discarded, and the supernatant was collected. 1/50 of the volume of 5 M NaCl was added to the clear supernatant fluid to achieve a final concentration of 0.1 M. Sterile glycerol was added until the final glycerol concentration was 20%. The enzyme solution was aliquoted into Eppendorf tubes and quickly frozen in liquid nitrogen and stored at −70° C.
# The assay is based on the ability of the telomerase enzyme in the S100 fractions to recognize an 18-base DNA primer with the DNA sequence (TTAGGG)3. DNA polymerization initiates from the 3′-OH group of the oligonucleotide. By reading from its complementary internal RNA template, telomerase adds a repeated set of 5′-TTAGGG-3′ to the original 18-base primer. Non-synchronous “starts” and “terminations” among the different enzyme complexes result in a degenerative set of different length DNA primers occurring in 6-base increments. Incorporation of [α-^32P]dGTP at the guanine positions of the 5′-TTAGGG-3′ sequence allows the newly synthesized DNA fragments to be visualized by autoradiography. The resulting image forms the characteristic “ladder” structure that is used to identify telomerase activity. The images are scanned using a phosphoimager or laser densitometer (Molecular Dynamics, Sunnyvale, Calif.). Comparisons of the total volumes under the corresponding peaks are used to quantitate the total amount of [α-^32P] incorporated in the primer extension reaction.
# The telomerase assay was initiated by mixing 20 μl of 2×reaction mix (100 mM Tris-OAc, pH 8.5, 100 mM KOAc, 10 mM β-mercaptoethanol, 2 mM spermidine, 2 mM MgCl2, 2 mM dATP, 2 mM dTTP, 2 μM oligo primer, potential inhibitors of interest at the appropriate concentration, and 50 μCi [α^32-P]dGTP) with 20 μl of S100 enzyme extract. The reaction mixture was then incubated at 30° C. for 1 hour. The reaction was stopped by incubating sequentially with 50 μl of the stop solution (10 mM Tris pH 7.5, 20 mM EDTA, 0.1 mg/ml RNase A) and 50 μl of deproteinase solution (10 mM Tris pH 7.5, 0.5% SDS, 0.3 mg/ml Proteinase K). The mixture was extracted with 50% phenol/50% chloroform (v/v). The DNA was then precipitated by adding 2.5×volumes of cold EtOH and letting it stand overnight at −70° C. The DNAs were separated on an 8% polyacrylamide/7M urea denaturing gel at 1600 V for 1.5 hours. The gel was dried and exposed to Kodak XAR-5 film to gel in −70° C. Typical autoradiographic exposures required 3-14 days.
# [2] = target: T4, human 293 cell telomerase; experiment: Modified telomerase assay (32P-dATP as radiolabeled substrate); assay type: biochemical
# Experimental: as §4
# In the conventional telomerase assay, the concentrations of both non-radiolabeled nucleotides, dATP and dTTP, are 1 mM, and the concentration of the radiolabeled [^32P]dGTP is 1.56 μM. Because of the high concentration of dATP and dTTP, the standard assay may not be suitable for determining the potential telomerase inhibition of any “Adenine or Thymine” analogs. […] All other chemicals and reaction conditions are identical to the conventional assay.
# [3] = system: human colon carcinoma HT29 cells; experiment: Growth inhibition (MTT), HT29 cells; assay type: cell-based; conditions: HT-29, 144 h, 6 days
# Experimental: as §1, §2, §3
# [4] = system: transformed human embryonic kidney 293 cells; experiment: Growth inhibition (MTT), 293 cells; assay type: cell-based; conditions: HEK293, 144 h, 6 days
# Experimental: as §1, §2, §3
# T1 sequence (O14746 whole entry): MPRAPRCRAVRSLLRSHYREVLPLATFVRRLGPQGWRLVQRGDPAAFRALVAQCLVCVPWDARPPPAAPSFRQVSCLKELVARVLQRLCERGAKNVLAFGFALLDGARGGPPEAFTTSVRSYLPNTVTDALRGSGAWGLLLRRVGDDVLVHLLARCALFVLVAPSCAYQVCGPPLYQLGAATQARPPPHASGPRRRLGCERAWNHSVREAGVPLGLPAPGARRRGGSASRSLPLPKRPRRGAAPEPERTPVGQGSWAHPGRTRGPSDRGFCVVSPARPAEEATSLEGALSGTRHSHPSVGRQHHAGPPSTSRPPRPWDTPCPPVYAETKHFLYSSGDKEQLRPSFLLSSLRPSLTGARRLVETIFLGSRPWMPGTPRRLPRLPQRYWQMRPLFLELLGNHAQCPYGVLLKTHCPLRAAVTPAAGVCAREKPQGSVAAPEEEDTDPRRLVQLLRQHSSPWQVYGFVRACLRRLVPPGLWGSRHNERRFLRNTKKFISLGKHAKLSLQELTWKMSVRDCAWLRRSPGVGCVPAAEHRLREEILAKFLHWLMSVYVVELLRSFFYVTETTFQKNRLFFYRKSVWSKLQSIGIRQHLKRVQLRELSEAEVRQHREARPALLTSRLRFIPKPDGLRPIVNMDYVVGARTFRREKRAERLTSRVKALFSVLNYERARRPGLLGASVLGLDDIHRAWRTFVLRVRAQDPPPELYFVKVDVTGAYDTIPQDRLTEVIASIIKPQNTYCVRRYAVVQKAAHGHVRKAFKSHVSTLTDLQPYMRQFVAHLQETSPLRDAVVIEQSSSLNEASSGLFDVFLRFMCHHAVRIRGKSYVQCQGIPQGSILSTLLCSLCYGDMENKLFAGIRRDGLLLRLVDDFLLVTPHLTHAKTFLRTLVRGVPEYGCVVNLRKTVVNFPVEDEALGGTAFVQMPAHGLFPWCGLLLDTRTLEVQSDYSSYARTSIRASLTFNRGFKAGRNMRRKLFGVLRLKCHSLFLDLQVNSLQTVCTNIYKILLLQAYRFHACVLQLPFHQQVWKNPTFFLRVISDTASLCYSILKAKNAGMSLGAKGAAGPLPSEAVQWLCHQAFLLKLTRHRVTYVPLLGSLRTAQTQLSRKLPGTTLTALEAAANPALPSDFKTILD
# T1 sequence (O60832 whole entry partner): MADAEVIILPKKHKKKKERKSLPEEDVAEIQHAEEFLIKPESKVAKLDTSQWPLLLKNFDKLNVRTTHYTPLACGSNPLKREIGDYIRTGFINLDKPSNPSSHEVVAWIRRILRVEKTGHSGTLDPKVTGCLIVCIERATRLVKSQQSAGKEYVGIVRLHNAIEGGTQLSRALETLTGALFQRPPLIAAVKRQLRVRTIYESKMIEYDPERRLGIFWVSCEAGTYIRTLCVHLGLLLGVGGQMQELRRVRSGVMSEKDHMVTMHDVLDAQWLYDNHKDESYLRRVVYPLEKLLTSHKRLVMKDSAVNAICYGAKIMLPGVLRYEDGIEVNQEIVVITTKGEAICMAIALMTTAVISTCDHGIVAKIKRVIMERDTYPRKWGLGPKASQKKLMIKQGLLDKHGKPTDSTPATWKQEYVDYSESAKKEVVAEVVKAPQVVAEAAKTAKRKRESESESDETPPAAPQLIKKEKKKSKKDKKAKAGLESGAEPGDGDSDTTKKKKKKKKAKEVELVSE
# T1 sequence (Q9NPE3 whole entry partner): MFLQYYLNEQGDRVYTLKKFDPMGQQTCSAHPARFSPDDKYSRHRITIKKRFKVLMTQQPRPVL
# T1 sequence (Q9NX24 whole entry partner): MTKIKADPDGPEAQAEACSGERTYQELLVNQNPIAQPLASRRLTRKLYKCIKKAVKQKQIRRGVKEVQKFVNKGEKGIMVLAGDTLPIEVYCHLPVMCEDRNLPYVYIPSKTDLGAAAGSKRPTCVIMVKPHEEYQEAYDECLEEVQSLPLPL
# T1 sequence (Q9NY12 whole entry partner): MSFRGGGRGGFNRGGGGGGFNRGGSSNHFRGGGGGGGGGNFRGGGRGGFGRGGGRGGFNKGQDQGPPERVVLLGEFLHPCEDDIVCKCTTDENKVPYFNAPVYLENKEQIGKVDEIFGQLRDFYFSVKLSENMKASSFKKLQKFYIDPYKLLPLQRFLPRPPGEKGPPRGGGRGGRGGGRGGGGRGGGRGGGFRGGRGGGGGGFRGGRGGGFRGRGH
# T4 sequence (O14746 whole entry): as the sequence (O14746 whole entry) above
# T4 sequence (O60832 whole entry partner): as the sequence (O60832 whole entry partner) above
# T4 sequence (Q9NPE3 whole entry partner): as the sequence (Q9NPE3 whole entry partner) above
# T4 sequence (Q9NX24 whole entry partner): as the sequence (Q9NX24 whole entry partner) above
# T4 sequence (Q9NY12 whole entry partner): as the sequence (Q9NY12 whole entry partner) above
# T2 sequence (O14746 whole entry): as the sequence (O14746 whole entry) above
# T2 sequence (O60832 whole entry partner): as the sequence (O60832 whole entry partner) above
# T2 sequence (Q9NPE3 whole entry partner): as the sequence (Q9NPE3 whole entry partner) above
# T2 sequence (Q9NX24 whole entry partner): as the sequence (Q9NX24 whole entry partner) above
# T2 sequence (Q9NY12 whole entry partner): as the sequence (Q9NY12 whole entry partner) above
# T3 sequence (O14746 whole entry): as the sequence (O14746 whole entry) above
# T3 sequence (O60832 whole entry partner): as the sequence (O60832 whole entry partner) above
# T3 sequence (Q9NPE3 whole entry partner): as the sequence (Q9NPE3 whole entry partner) above
# T3 sequence (Q9NX24 whole entry partner): as the sequence (Q9NX24 whole entry partner) above
# T3 sequence (Q9NY12 whole entry partner): as the sequence (Q9NY12 whole entry partner) above
structure (smiles),measurement,setting,value
COc1nc(N)nc2c1ccn2[C@H]1C[C@H](O)[C@@H](CO)O1 [6-methoxy-7-deaza-2′-deoxyguanosine],pIC50,HeLa cell telomerase,5.31
Nc1nc2c(c(=S)[nH]1)CC=N2 [6-thio-7-deaza guanine],pIC50,MCF-7,4.07
same,pIC50,BT-20,3.59
same,pIC50,SKBR3,4.13
same,pIC50,PC3,3.92
same,pIC50,MDA-231,< 4.30
same,pIC50,DU145,< 4.00
same,pIC50,Raji,4.08
"CSc1nc(N)nc2c1ccn2C1CC(O)C(CO)O1 (stereo not shown) [Compound 3, 6-Thiomethyl-7-deaza-2′-deoxyguanosine]",pIC50,MCF-7,4.05
same,pIC50,BT-20,4.03
same,pIC50,SKBR3,4.13
same,pIC50,PC3,< 4.00
same,pIC50,MDA-231,3.55
same,pIC50,DU145,< 4.00
same,pIC50,Raji,4.08
"Cn1c(N)nc2c(ccn2[C@H]2C[C@H](O)[C@@H](CO)O2)c1=O [Compound 5, 1-N-methyl-7-deaza-2′-deoxyguanosine]",pIC50,MCF-7,4.24
same,pIC50,BT-20,4.22
same,pIC50,PC3,4.03
same,pIC50,HeLa cell telomerase,3.80
same,pIC50,MDA-231,< 4.30
same,pIC50,DU145,< 4.30
same,pIC50,Raji,4.36
"COc1nc(N)nc2c1ccn2[C@H]1C[C@H](O)[C@@H](COP(=O)(O)OP(=O)(O)OP(=O)(O)O)O1 [Compound 6, 6-Methoxy-7-deaza-2′-deoxyguanosine Triphosphate]",pIC50,HeLa cell telomerase,5.31
"Cn1c(N)nc2c(ccn2[C@H]2C[C@H](O)[C@@H](COP(=O)(O)OP(=O)(O)OP(=O)(O)O)O2)c1=O [Compound 7, 1-Methyl-7-deaza-2′-deoxyguanosine Triphosphate]","incorporation into telomeric ladders, replacing dGTP","human cancer telomerase; modified assay, 1 mM dTTP, 3.12 μM [α-32P]dATP",incorporation
same,pIC50,HeLa cell telomerase,3.80
"CSc1nc(N)nc2c1ccn2[C@H]1C[C@H](O)[C@@H](COP(=O)(O)OP(=O)(O)OP(=O)(O)O)O1 [Compound 9, 6-Thiomethyl-7-deaza-2′-deoxyguanosine Triphosphate]",inhibition in a HeLa cell telomerase assay,HeLa cell telomerase; up to 62.5 μM,no inhibition
"Nc1nc2c(ccn2[C@H]2C[C@H](O)[C@@H](COP(=O)(O)OP(=O)(O)OP(=O)(O)O)O2)c(=O)[nH]1 [NA022, 7-Deaza-2′-Deoxyguanosine-5′-Triphosphate]",pIC50,"human telomerase; Summary values, assay variant not stated, read-out: IC50",5.17
same,times more potent than AZT-TP,human telomerase; from IC50 values,at least 50 times
same,remaining activity at 1 µM,"[1]; 1.0 μM, read-out: % of Control",99%
same,remaining activity at 2.5 µM,"[1]; 2.5 μM, read-out: % of Control",114%
same,remaining activity at 5 µM,"[1]; 5.0 μM, read-out: % of Control",67%
same,remaining activity at 7.5 µM,"[1]; 7.5 μM, read-out: % of Control",81%
same,remaining activity at 10 µM,"[1]; 10 μM, read-out: % of Control",24%
same,remaining activity at 25 µM,"[1]; 25 μM, read-out: % of Control",27%
same,remaining activity at 50 µM,"[1]; 50 μM, read-out: % of Control",18%
same,remaining activity at 75 µM,"[1]; 75 μM, read-out: % of Control",0%
same,remaining activity at 100 µM,"[1]; 100 μM, read-out: % of Control",0%
same,pIC50,"[1]; [α-32P]dGTP 1.56 μM, TTP and dATP 1 mM",4.96
same,"Inhibition of 293 Telomerase, Conventional Assay *dGTP",[1]; up to 2 mM,concentration-dependent inhibition
same,Substrate of 293 Telomerase,human cancer telomerase; dGTP analog,Is a substrate Produces short telomere Substrate Inhibition
same,concentration above which there was no activity,"human cancer telomerase; dGTP replaced, 1 mM dTTP, 3.12 μM [α-32P]dATP",> 1.5 mM
same,pIC50,"[2]; [α-32P]dATP 3.12 μM, TTP and dGTP 1 mM",4.25 and > 4.00
same,"Inhibition of 293 cell telomerase, modified assay",[2]; competing radioactive nucleotide 3.12 μM [α32P]dATP,concentration-dependent inhibition
"Nc1nc2c(ccn2[C@H]2C[C@H](O)[C@@H](CO)O2)c(=S)[nH]1 [NA028, 6-Thio-7-Deaza-2′-Deoxyguanosine]",pIC50,MCF-7,3.97
same,pIC50,BT-20,4.08
same,pIC50,SKBR3,3.97
same,pIC50,PC3,3.68
same,pIC50,MDA-231,3.93
same,pIC50,DU145,< 4.00
same,pIC50,[3],3.34
same,pIC50,[4],3.34
same,pIC50,Raji,3.99
